The source of these data is patent publication EP2875809B1, “Product based on an association of glucomannan and inositol” (Dicofarm Spa, priority 2013, dated 2015).

Each structure is given as a SMILES string.

The nature of assay [1]: OGTT (oral glucose tolerance test): insulin levels. Format: in vivo. To be noted: OGTT 75 g, women with PCOS, treatment twice a day for 3 months. Set-up: unit not given beside the values. How it is done: (§1) In order to evaluate the effectiveness of this new combination of inositol and glucomannan on blood glucose levels and insulin at baseline and after glucose load curve, it was evaluated the effect in 20 women affected by insulin resistance PCOS and compared with what determined in 2 groups of 10 women each, treated with myo-inositol and glucomannan individually administered.
(§2) The women were divided into 3 groups, each group received the treatment according to the following scheme: • Group A: 20 women treated with 1.5 g of myo-inositol + 2 g of glucomannan, twicea day for 3 months, administered half an hour before meals; • Group B: 10 women treated with 1.5 g myo-inositol, twice a day for 3 months, administered half an hour before meals; • Group C: 10 women treated with a dose of 2 g of glucomannan, twice a day for 3 months, adminisered with main meals.
(§3) In order to determine blood glucose and insulin levels in all samples, OGTT (oral glucose tolerance test) was performed in all women in the early follicular phase of the spontaneous period, or after a progestin-induced, period before starting the treatment and after three months of treatment ([…]) .

The nature of assay [2]: Menstrual cycle trend (frequency of the period). Format: in vivo. To be noted: before the treatment, same group of women with PCOS.
Text: as §2
(§4) In addition to the assessment of blood glucose and insulin levels during OGTT, the menstrual cycle trend has been evaluated in all the women: the 3rd month of treatment at the 22nd day of the menstrual cycle a progesterone dosage was performed and, after 3 months of treatment, an evaluation of acne, hirsutism and body mass index was performed.

The nature of assay [3]: OGTT (oral glucose tolerance test): blood glucose levels. Format: in vivo. The settings on record: OGTT 75 g, women with PCOS, treatment twice a day for 3 months. How it is done: as §1, §2, §3
Assay [4] can be described thus: Body mass index evaluation. Format: in vivo, women.
Text: as §2, §4

Assay [5] in a line: Plasma progesterone at the 22nd day of the period. Format: in vivo, women.
Text: as §2, §4

[6] abbreviates: before treatment, same group of women with PCOS.

`O[C@H]1[C@H](O)[C@@H](O)[C@H](O)[C@@H](O)[C@H]1O` [myo-inositol]: the insulin levels was 7.6+1 in assay [1] (time 0); 57.5±7.13 in assay [1] (time 60'); 48.4±4.81 in assay [1] (time 90'); 40.7±5.57 in assay [1] (time 120'); 34±4.89 in assay [1] (time 180'). In assay [2], the “frequency of the period” value was 38 to 42 days. Besides, the blood glucose levels in assay [3] (time 0) was 90±4.71; in assay [3] (time 30'), 130.8±6.56; in assay [3] (time 90'), 107.2±10.25; in assay [3] (time 120') it was 98±6.92; in assay [3] (time 180'), 91.1±6.15. The body mass index in assay [4] (at the 3rd month of treatment) was 25 ± 1.3; in assay [4] (setting [6]), 27 ± 0.6. For the same compound, the plasma progesterone came out at 4.2 ± 0.6 ng/mL in assay [5] (22nd day of the period during the 3rd month of treatment) and 2.2 ± 0.2 ng/mL in assay [5] (setting [6]).
